Reference: BindingDB's records for patent US20240067645 (Lg Chem, 2024)
pIC50: −log10 of the molar value.

Molecular target: Diacylglycerol kinase alpha (Homo sapiens, UniProt P23743)
Assay: Inhibitory Effect Against DGKalpha Enzyme
Protocol: First, 3×OAG (3 mM)/ATP (0.45 mM) substrate solution was prepared from 1× substrate assay buffer (40 mM MOPS (pH 7.2), 20 mM MgCl2, 1 mM DTT, 0.4 mM CaCl2), 3 mM sodium deoxycholate, 100 mM NaCl, 0.1 mg/mL BSA, 0.12% NP-40), and vortexed thoroughly for 3 minutes to induce detergent-lipid micelle formation. Then, 3×DGKα (7.5 nM) enzyme solution was prepared from 2× enzyme assay buffer (80 mM MOPS (pH 7.2), 2 mM DTT, 200 mM NaCl, 0.2 mg/mL BSA) and vortexed for a short time. After preparing the above two solutions, a half-area opaque 96-well assay plate was prepared, and 10 μL of 3× diluted compound solution (30 μM to 0 μM) was transferred to each well. Next, 10 μL of 3×DGK enzyme solution was transferred to the same plate, mixed by pipetting, and then 10 μL of 3×OAG/ATP substrate solution was added to the assay plate and mixed well. The plate was incubated at room temperature for 20 minutes for the enzyme reaction. Next, 15 μL of ADP-Glo reagent was added to each well and mixed by pipetting, followed by incubating the plate at room temperature for 40 minutes to deplete the remaining ATPs. After this step, 30 μL of kinase detection reagent was added and mixed, and the plate was incubated at room temperature for an additional 20 minutes and luminescence was measured by Envision to calculate the IC50 value of each compound.

Diacylglycerol kinase alpha, sequence (P23743 whole entry): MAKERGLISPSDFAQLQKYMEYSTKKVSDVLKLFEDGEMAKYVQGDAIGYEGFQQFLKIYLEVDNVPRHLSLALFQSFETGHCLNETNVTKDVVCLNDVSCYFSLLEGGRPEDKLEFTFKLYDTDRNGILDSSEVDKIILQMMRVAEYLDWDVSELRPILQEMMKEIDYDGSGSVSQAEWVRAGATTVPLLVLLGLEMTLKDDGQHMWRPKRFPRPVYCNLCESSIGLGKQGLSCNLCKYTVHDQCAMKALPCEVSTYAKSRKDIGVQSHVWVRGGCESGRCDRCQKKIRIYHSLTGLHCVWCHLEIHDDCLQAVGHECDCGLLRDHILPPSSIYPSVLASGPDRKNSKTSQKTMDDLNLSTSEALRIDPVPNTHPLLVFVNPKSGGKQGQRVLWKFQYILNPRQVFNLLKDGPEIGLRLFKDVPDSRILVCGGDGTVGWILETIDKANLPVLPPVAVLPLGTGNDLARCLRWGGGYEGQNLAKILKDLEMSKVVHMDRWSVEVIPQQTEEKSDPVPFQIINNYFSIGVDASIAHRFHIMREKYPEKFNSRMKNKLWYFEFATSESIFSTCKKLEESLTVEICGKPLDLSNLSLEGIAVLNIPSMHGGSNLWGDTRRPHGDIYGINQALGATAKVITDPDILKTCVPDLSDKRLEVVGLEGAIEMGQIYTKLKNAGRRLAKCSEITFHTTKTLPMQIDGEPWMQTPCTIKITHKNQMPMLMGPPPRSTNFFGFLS

| pIC50 | SMILES |
| --- | --- |
| > 6.52 | Cn1c(=O)c(=O)n(C2CCN(Cc3cccc(Cl)c3)CC2)c2ncc(Cl)cc21 [US20240067645, Example 27] |
| > 6.52 | Cn1c(=O)c(=O)n(C2CCN(Cc3ccc(OC(F)(F)F)cc3)CC2)c2ncc(Br)cc21 [US20240067645, Example 34] |
| > 6.52 | Cn1c(=O)c(=O)n(C2CCN(Cc3cccc4c(Cl)cccc34)CC2)c2ncc(Cl)cc21 [US20240067645, Example 35] |
| > 6.52 | Cn1c(=O)c(=O)n(C2CCN(Cc3ccc(F)c(Cl)c3)CC2)c2ncc(Cl)cc21 [US20240067645, Example 42] |
| > 6.52 | Cn1c(=O)c(=O)n(C2CCN(Cc3ccc(OC(F)(F)F)c(Cl)c3)CC2)c2ncc(Cl)cc21 [US20240067645, Example 43] |
